Entries after “also recorded” stand apart in the source; their conditions may differ.
What was measured:
solubility in water = format: physicochemical
[1] = variable-temperature powder X-ray diffraction (crystal form stability at high temperatures); format: physicochemical; details: heated from 30° C. to 80° C.; powder X-ray diffraction at 35, 45, 55, 65 and 75° C.
Experimental: The crystalline form III of dextral oxiracetam of the invention was placed on a single crystal silicon sample stage, heated from 30° C. to 80° C., and subjected to powder X-ray diffraction measurement at 35° C., 45° C., 55° C., 65° C. and 75° C., respectively. […] It can be seen that the crystalline form III of dextral oxiracetam of the invention has good stability at high temperatures. […] It can be confirmed that the crystalline form III of dextral oxiracetam is temperature stable. When the crystalline form III of dextral oxiracetam of the invention is used for storage or formulation processing, the requirements on processing and storage temperatures are reduced.

With `NC(=O)CN1C[C@H](O)CC1=O` [dextral oxiracetam] the solubility (solubility in water) was no less than 100 mg/mL and the “crystal transformation on heating (stability at high temperatures)” value [1] was “does not show a phenomenon of crystal transformation; also recorded: does not exhibit crystal transformation phenomenon”.
